Where “and” joins values, the source holds several entries; their conditions need not be identical. Equal values may be shown once.
Experiments:
[1] = biological target: Calcitonin gene-related peptide type 1 receptor (Cavia porcellus); test: Binding affinity against [125I]-hCalcitonin gene-related peptide type receptor binding sites in guinea pig atrium membrane
[2] = biological target: Calcitonin gene-related peptide (CGRP) receptor binding sites; test: ChEBML_42602

Row | IC50 [1] | IC50 [2] [nM] | Compound
1 | 22 nM and 25 nM |  | H-VTHALAGLLSRSGGVVKNNFVPTNVGSKAF-NH2
2 | 11 nM | 14.5 | H-VTHRAAGLLSRSGGVVKNNFVPTNVGSKAF-NH2
3 |  | 9 | CC(C)C[C@H](NC(=O)CNC(=O)[C@H](C)NC(=O)[C@H](CC(C)C)NC(=O)[C@H](CCCN=C(N)N)NC(=O)[C@@H](N)Cc1c[nH]cn1)C(=O)N[C@@H](CC(C)C)C(=O)N[C@@H](CO)C(=O)N[C@@H](CCCN=C(N)N)C(=O)N[C@@H](CO)C(=O)NCC(=O)NCC(=O)N[C@H](C(=O)N[C@H](C(=O)N[C@@H](CCCCN)C(=O)N[C@@H](CC(N)=O)C(=O)N[C@@H](CC(N)=O)C(=O)N[C@@H](Cc1ccccc1)C(=O)N[C@H](C(=O)N1CCC[C@H]1C(=O)N[C@H](C(=O)N[C@@H](CC(N)=O)C(=O)N[C@H](C(=O)NCC(=O)N[C@@H](CO)C(=O)N[C@@H](CCCCN)C(=O)N[C@@H](C)C(=O)N[C@@H](Cc1ccccc1)C(N)=O)C(C)C)[C@@H](C)O)C(C)C)C(C)C)C(C)C

Reference: BindingDB's records for doi:10.1021/jm00090a003 (Universit&#233, 1992)
